Laboratory results taken from ChEMBL document CHEMBL5614374, “Novel carbazole-oxadiazole derivatives as anti-α-glucosidase and anti-α-amylase agents: Design, synthesis, molecular docking, and biological evaluation” (Eur J Med Chem, 2024).
Blank lines part the entries; values can stand above or below the molecule they belong to. Calls of active or inactive are those of the source. The rule behind the calls is not given here.

Key:
[1] = molecular target: T1, Alpha-glucosidase (Saccharomyces cerevisiae S288c) (UniProt P53341+P38158+P07265); assay: Inhibition of alpha-glucosidase (unknown origin) assessed as effect on secondary structure by measuring reduction in alpha-helix content at 20 uM by CD spectra (reference value: 32.1 %); type: protein assay; design: scale not given: the % may be the effect or the level left; settings: Homo sapiens
[2] = molecular target: T1, Alpha-glucosidase (Saccharomyces cerevisiae S288c); assay: Mixed-type inhibition of Saccharomyces cerevisiae alpha-glucosidase using p-nitrophenyl-alpha-D-glucopyranoside as substrate assessed as decrease in Km and Vmax upto 20 uM incubated for 7 mins by spectrophotometer based Lineweaver-Burk plot analysis; type: protein assay
[3] = molecular target: T2, Alpha-amylase (Sus scrofa domesticus, UniProt Q7M328); assay: Inhibition of hog pancreatic alpha-amylase using soluble starch as substrate preincubated for 10 mins followed by substrate addition and measured after 15 mins by absorbance based analysis
T2 sequence (Q7M328 whole entry): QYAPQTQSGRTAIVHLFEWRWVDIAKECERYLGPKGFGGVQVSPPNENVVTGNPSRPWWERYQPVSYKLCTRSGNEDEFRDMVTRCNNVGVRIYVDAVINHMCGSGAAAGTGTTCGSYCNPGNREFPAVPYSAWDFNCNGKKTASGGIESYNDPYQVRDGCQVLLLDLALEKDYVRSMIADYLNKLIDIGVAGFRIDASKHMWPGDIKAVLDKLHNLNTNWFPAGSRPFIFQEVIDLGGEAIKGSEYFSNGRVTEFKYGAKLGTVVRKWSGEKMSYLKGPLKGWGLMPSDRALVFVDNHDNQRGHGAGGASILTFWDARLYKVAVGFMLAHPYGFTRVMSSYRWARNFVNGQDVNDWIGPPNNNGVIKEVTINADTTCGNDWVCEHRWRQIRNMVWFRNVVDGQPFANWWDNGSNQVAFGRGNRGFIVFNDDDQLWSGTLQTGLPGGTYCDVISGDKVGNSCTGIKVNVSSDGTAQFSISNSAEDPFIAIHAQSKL

[4] = molecular target: T1, Alpha-glucosidase (Saccharomyces cerevisiae S288c); assay: Inhibition of alpha-glucosidase (unknown origin) assessed as effect on secondary structure by measuring beta-sheet content at 10 uM by CD spectra (reference value: 18.1 %); type: protein assay; design: scale not given: the % may be the effect or the level left
[5] = molecular target: T3, Alpha-glucosidase (Saccharomyces cerevisiae S288c, UniProt P53341+P38158+P07265); assay: Inhibition of Saccharomyces cerevisiae alpha-glucosidase using p-nitrophenyl-alpha-D-glucopyranoside as substrate assessed as inhibition constant of enzyme-substrate complex incubated for 7 mins by spectrophotometer based Lineweaver-Burk plot analysis; type: protein assay
[6] = tested on: Mus musculus; assay: Reduction in blood glucose concentration in male Kunming mouse assessed as decrease in AUC at 20 mg/kg, IG preadministered for 40 mins followed by saccharose addition and measured after 150 mins by sucrose loading test relative to control; type: functional; design: scale not given: the % may be the effect or the level left; settings: time 190 min, 3.167 h
[7] = tested on: Mus musculus; assay: Reduction in blood glucose concentration in male Kunming mouse at 20 mg/kg, IG preadministered for 40 mins followed by saccharose addition and measured after 30 mins by sucrose loading test; type: functional, organism-based; settings: time 70.0 min
[8] = molecular target: T1, Alpha-glucosidase (Saccharomyces cerevisiae S288c); assay: Inhibition of alpha-glucosidase (unknown origin) assessed as increase in enzyme particle thickness at 1 uM incubated for 15 mins by AFM imaging analysis; type: protein assay
[9] = molecular target: T1, Alpha-glucosidase (Saccharomyces cerevisiae S288c); assay: Inhibition of alpha-glucosidase (unknown origin) assessed as effect on secondary structure by measuring beta-sheet content at 20 uM by CD spectra (reference value: 18.1 %); type: protein assay; design: scale not given: the % may be the effect or the level left
[10] = molecular target: T1, Alpha-glucosidase (Saccharomyces cerevisiae S288c); assay: Inhibition of alpha-glucosidase (unknown origin) assessed as effect on secondary structure by measuring random coil content at 30 uM by CD spectra (reference value: 33.1 %); type: protein assay; design: scale not given: the % may be the effect or the level left; settings: Homo sapiens
[11] = molecular target: T1, Alpha-glucosidase (Saccharomyces cerevisiae S288c); assay: Inhibition of alpha-glucosidase (unknown origin) assessed as effect on secondary structure by measuring beta-turn content at 20 uM by CD spectra (reference value: 17.1 %); type: protein assay; design: scale not given: the % may be the effect or the level left
[12] = molecular target: T1, Alpha-glucosidase (Saccharomyces cerevisiae S288c); assay: Inhibition of alpha-glucosidase (unknown origin) assessed as effect on secondary structure by measuring beta-turn content at 30 uM by CD spectra (reference value: 17.1 %); type: protein assay; design: scale not given: the % may be the effect or the level left
[13] = molecular target: T1, Alpha-glucosidase (Saccharomyces cerevisiae S288c); assay: Inhibition of alpha-glucosidase (unknown origin) assessed as effect on secondary structure by measuring beta-turn content at 10 uM by CD spectra (reference value: 17.1 %); type: protein assay; design: scale not given: the % may be the effect or the level left
[14] = Cytotoxicity against HEK293 cells incubated for 1 day by MTT assay; type: toxicity, cell-based; settings: human
[15] = molecular target: T1, Alpha-glucosidase (Saccharomyces cerevisiae S288c); assay: Inhibition of alpha-glucosidase (unknown origin) assessed as effect on secondary structure by measuring reduction in alpha-helix content at 30 uM by CD spectra (reference value: 32.1 %); type: protein assay; design: scale not given: the % may be the effect or the level left; settings: Homo sapiens
[16] = molecular target: T1, Alpha-glucosidase (Saccharomyces cerevisiae S288c); assay: Inhibition of alpha-glucosidase (unknown origin) assessed as effect on secondary structure by measuring random coil content at 10 uM by CD spectra (reference value: 33.1 %); type: protein assay; design: scale not given: the % may be the effect or the level left; settings: Homo sapiens
[17] = molecular target: T1, Alpha-glucosidase (Saccharomyces cerevisiae S288c); assay: Inhibition of alpha-glucosidase (unknown origin) assessed as effect on secondary structure by measuring random coil content at 5 uM by CD spectra (reference value: 33.1 %); type: protein assay; design: scale not given: the % may be the effect or the level left; settings: Homo sapiens
[18] = Cytotoxicity against HEK293 cells assessed as cell viability at 60 uM incubated for 1 day by MTT assay relative to control; type: toxicity, cell-based; settings: human, read-out: Activity
[19] = molecular target: T1, Alpha-glucosidase (Saccharomyces cerevisiae S288c); assay: Inhibition of alpha-glucosidase (unknown origin) assessed as effect on secondary structure by measuring random coil content at 20 uM by CD spectra (reference value: 33.1 %); type: protein assay; design: scale not given: the % may be the effect or the level left
[20] = molecular target: T1, Alpha-glucosidase (Saccharomyces cerevisiae S288c); assay: Inhibition of alpha-glucosidase (unknown origin) assessed as effect on secondary structure by measuring beta-turn content at 5 uM by CD spectra (reference value: 17.1 %); type: protein assay; design: scale not given: the % may be the effect or the level left; settings: Homo sapiens
[21] = molecular target: T1, Alpha-glucosidase (Saccharomyces cerevisiae S288c); assay: Inhibition of alpha-glucosidase (unknown origin) assessed as effect on secondary structure by measuring reduction in alpha-helix content at 10 uM by CD spectra (reference value: 32.1 %); type: protein assay; design: scale not given: the % may be the effect or the level left; settings: Homo sapiens
[22] = molecular target: T1, Alpha-glucosidase (Saccharomyces cerevisiae S288c); assay: Inhibition of alpha-glucosidase (unknown origin) assessed as effect on secondary structure by measuring beta-sheet content at 30 uM by CD spectra (reference value: 18.1 %); type: protein assay; design: scale not given: the % may be the effect or the level left
[23] = molecular target: T3, Alpha-glucosidase; assay: Inhibition of Saccharomyces cerevisiae alpha-glucosidase using p-nitrophenyl-alpha-D-glucopyranoside as substrate preincubated for 0.25 hrs followed by substrate addition and measured after 0.5 hrs by spectrophotometric analysis; type: protein assay
[24] = molecular target: T1, Alpha-glucosidase (Saccharomyces cerevisiae S288c); assay: Inhibition of alpha-glucosidase (unknown origin) assessed as effect on secondary structure by measuring reduction in alpha-helix content at 5 uM by CD spectra (reference value: 32.1 %); type: protein assay; design: scale not given: the % may be the effect or the level left; settings: Homo sapiens
[25] = molecular target: T1, Alpha-glucosidase (Saccharomyces cerevisiae S288c); assay: Inhibition of alpha-glucosidase (unknown origin) assessed as effect on secondary structure by measuring beta-sheet content at 5 uM by CD spectra (reference value: 18.1 %); type: protein assay; design: scale not given: the % may be the effect or the level left
[26] = molecular target: T1, Alpha-glucosidase (Saccharomyces cerevisiae S288c); assay: Inhibition of alpha-glucosidase (unknown origin) assessed as increase in enzyme particle size at 1 uM incubated for 15 mins by AFM imaging analysis; type: protein assay

- Activity [1]: 25.7%
- inhibition [2]: Active
- IC50 [3]: 61.5 µM
- Activity [4]: 20.3%
- Ki [5]: 13.19 µM
- inhibition [8]: Active
- Activity [9]: 22.4%
- Activity [10]: 38.8%
- Activity [11]: 18.4%
- Activity [12]: 18.5%
- Activity [13]: 17.8%
- Activity [15]: 25.1%
- Activity [16]: 36.1%
- Activity [17]: 35.3%
- Activity [19]: 38.1%
- Activity [20]: 17.7%
- Activity [21]: 28.5%
- Activity [22]: 22.9%
- IC50 [23]: 21.39 µM
- Activity [24]: 28.9%
- Activity [25]: 20%
- inhibition [26]: Active
SMILES: CCOc1ccc(NC(=O)CSc2nnc(CCn3c4ccccc4c4ccccc43)o2)cc1
- Activity [6]: 11.74%
- Activity [7]: Active
- IC50 at 1 day [14]: 193 µM
- viability at 24 h, 60 µM [18]: 96.1%

- IC50 [3]: 54.6 µM
- IC50 [23]: 67.35 µM
SMILES: Cc1ccc(NC(=O)CSc2nnc(CCn3c4ccccc4c4ccccc43)o2)c([N+](=O)[O-])c1

- IC50 [3]: > 200 µM
- IC50 [23]: > 300 µM
SMILES: Cc1ccccc1NC(=O)CSc1nnc(CCn2c3ccccc3c3ccccc32)o1

- IC50 [3]: 89.7 µM
- IC50 [23]: 37.96 µM
SMILES: O=C(CSc1nnc(CCn2c3ccccc3c3ccccc32)o1)Nc1ccc(Cl)cc1[N+](=O)[O-]

Continued, molecule first:

SMILES: O=C(CSc1nnc(CCn2c3ccccc3c3ccccc32)o1)Nc1ccc(Cl)cc1Cl
- IC50 [3]: 94.3 µM
- IC50 [23]: 92.05 µM

SMILES: O=C(CSc1nnc(CCn2c3ccccc3c3ccccc32)o1)Nc1ccccc1
- IC50 [3]: 56.2 µM
- IC50 [23]: 43.26 µM

SMILES: O=C(CSc1nnc(CCn2c3ccccc3c3ccccc32)o1)Nc1ccc(Cl)cc1
- IC50 [3]: 83.2 µM
- IC50 [23]: 22.07 µM
